From patent EP3301100A1, “ORGANOMETALLIC FLUCONAZOLE DERIVATES AND THEIR USE AS ANTIMYCOTICS” (Universität Zürich, priority 2016, dated 2018)
Converted amounts (≈) assume the structure as drawn.

Tests used:
[1] = tested on: human retinal pigment epithelial cell (RPE-1-hTert); assay: cells
Procedure: In both topic and systemic applications, antimycotic drugs are getting in contact with patient tissues. It is therefore of utmost importance that new drug candidates display a lack of host toxicity. Thus, the antiproliferative effect of the new complexes were investigated in vitro on human retinal pigment epithelial cell (RPE-1-hTert). […] Table 1: Host cytotoxicity
Human fibroblast (MRC-5) and retinal pigment epithelial (RPE) cell lines were cultured in F-10 medium supplemented with 10% fetal calf serum (FCS, Gibco), 100 U/mL penicillin, 100 µg/mL streptomycin or DMEM medium (Gibco) supplemented with 10% fetal calf serum (FCS, Gibco), 100 U/mL penicillin, 100 µg/mL streptomycin, respectively, at 37 °C and 6% CO2.
Cytotoxicity studies of the compounds of the present invention were performed by a fluorometric cell viability assay using resazurin (Promocell GmbH). Briefly, one day before treatment the cells were plated in triplicate in 96-well plates at a density of 4 × 10^3 cells per well in 100 µL. Upon treating the cells with increasing concentrations of the compounds of the present invention, the cells were incubated for 48 h at 37 °C/6% CO2, the medium was removed, and 100 µL of complete medium containing resazurin (0.2 mg mL^-1 final concentration) was added. After 4 h of incubation at 37 °C/6% CO2, the fluorescence of the highly red fluorescent resorufin product was quantified at 590 nm emission with 540 nm excitation wavelength using a SpectraMax M5 Microplate Reader. The results were expressed as mean ± standard deviation error of independent experiments.

[2] = tested on: Candida albicans; assay: Antifungal activity on pathological isolated strain (EUCAST susceptibility testing, MIC50); assay type: cell-based; conditions: C. albicans, ≥ 50% inhibition of growth after 48 h incubation
Procedure: (§1) In vivo studies were performed on pathological isolated strains. […] The compounds of the present invention were tested against Candida albicans, its azole-resistant type and three different pathologic fungi, namely Penicillumpaneum, Aspergillus glaucus and Trichosporonasahi (see table 2). […] Table 2: In vivo antifungal activity
(§2) Candida strains were tested for their susceptibility to the azole (7 dilution series, ranging from 1 mM to 0.01 mM) following the European Committee for Antimicrobial Susceptibility Testing protocol (EUCAST Definitive Document EDef 7.2 Revision, 2012). Briefly, cells were grown in RPMI1640 medium supplied with 2.0% glucose, counted and inoculated at a concentration of 1-5 x 10^5 CFU/ml.

[3] = tested on: C. albicans (res. Strains); assay: as above; assay type: cell-based, Candida albicans; conditions: for MIC50: C. albicans (res. Strains), azole-resistant, ≥ 50% inhibition of growth after 48 h incubation
Procedure: as §1, §2

[4] = tested on: P. paneum; assay: as above; assay type: cell-based, Penicillumpaneum; conditions: for MIC50: P. paneum, ≥ 50% inhibition of growth after 48 h incubation
Procedure: as §1, §2

[5] = tested on: A. glaucus; assay: as above; assay type: cell-based, Aspergillus glaucus; conditions: ≥ 50% inhibition of growth after 48 h incubation
Procedure: as §1, §2

[6] = tested on: T. asahi; assay: as above; assay type: cell-based, Trichosporonasahi; conditions: ≥ 50% inhibition of growth after 48 h incubation
Procedure: as §1, §2

[7] = tested on: Candida Robusta; conditions: wild type C. robusta, agar, 24 h at 30 °C; result in words, comparison with the parent drug
Procedure: To evaluate the antifungal acitivty of the new drug candidates, a well-plate based assay was used. The first investigation of antimycotic activity has been performed on a well-known model, namely Candida Robusta. Wild type colony of C. robusta was cultured and diluted to start the growing phase just before treatment and then seeded at different concentrations on the agar terrain poured with different concentrations of the target complexes and incubated for 24 h at 30 °C.
Wild type C. robusta was freshly inoculated and cultured in autoclaved YPD buffer containing 2% bacto peptone, 1% bacto yeast extract and 2% glucose anhydrous at 30°C (Kuehner shaker Labtherm, Kuehner Switzerland).
Briefly, one day before treatment, an aliquot of wild type C. robustawas inoculated in 5 mL YPD buffer solution (see above) and incubated overnight at 30°C. The fungal proliferation was then quantified at 600 nm in a Cary60 UV/Vis (Agilent Technologies). The SC was then seeded at different concentrations of the yeast (representing OD of 0.2, 0.02, 0.002 and 0.0002 for different colony growth rate) in 24-wells plates containing 2 mL growing terrain. […] The fungal colony formation was monitored with Alpha Digitec camera (Bucher Biotec) and the colony density was calculated with Alphalmager software (v1.3.0.7) with multiplex band analysis mode / single tool. […]

Row | MIC50 ([2]; Candida albicans) | MIC50 ([3]; Candida albicans) | MIC50 ([5]; Aspergillus glaucus) | Compound | cell viability [1] | IC50 ([1]; Homo sapiens, Epithelial cell, 48 h) | MIC50 [4] | MIC50 [6] | IC50 ([1]; RPE-1-hTert cells, 48 h incubation, resazurin, mean ± standard deviation error) | MIC50 [2] | MIC50 [3] | azole resistance ([3]; C. albicans resistant strain, result in words) | antimycotic potency over the parent drug ([4]; e.g. P.paneum, factor versus fluconazole) | MIC50 [5] | antifungal activity [7]
1 | 0.8 µM (≈ 0.245 µg/mL) | > 209 µM | 0.8 µM (≈ 0.245 µg/mL) | OC(Cn1cncn1)(Cn1cncn1)c1ccc(F)cc1F [Fluconazole] | did not affect cell viability | > 100 µM | >209 µM | 1.6 µM (≈ 0.49 µg/mL) | – | – | – | – | – | – | –
2 | – | – | – | Cl.OC(CNC[c-]1cccc1)(Cn1cncn1)c1ccc(F)cc1F.[Fe+2].c1cc[cH-]c1 (stereo not drawn) [H, syn/anti-N-(ferrocenylmethyl)-2-(2,4-difluorophenyl)-2-hydroxy-3-(1H-1,2,4-triazol-1-yl)propan-1-aminium chloride] | – | – | – | – | > 100 µM | – | – | – | – | – | –
3 | – | – | – | C[NH+](C[c-]1cccc1)CC(O)(Cn1cncn1)c1ccc(F)cc1F.[Cl-].[Fe+2].c1cc[cH-]c1 (stereo not drawn) [Methyl, syn/anti-N-(ferrocenylmethyl)-2-(2,4-difluorophenyl)-2-hydroxy-N-methyl-3-(1H-1,2,4-triazol-1-yl)propan-1-aminium chloride] | – | – | 0.25 µM | 0.13 µM | – | 0.07 µM | 0.7 µM | able to overcome azole resistance | ≤ 800 fold | >1 µM | highest antimycotic activity
